Data: article PMC10508264, “Exploring the antioxidant, antimicrobial, cytotoxic and biothermodynamic properties of novel morpholine derivative bioactive Mn(II), Co(II) and Ni(II) complexes – combined experimental and theoretical measurements towards DNA/BSA/SARS-CoV-2 3CL^Pro” (RSC Medicinal Chemistry, 2023)

How the values were obtained:
[1] = system: Salmonella enterica serovar typhi; test: Agar disc diffusion, strain C; type: cell-based; conditions: for Diameter of clear zone inhibition: control 6 mm
Staphylococcus Aureus = test: Agar disc diffusion, strain F; type: cell-based; parameters: Inhibition%: concentration or dose not given beside the values; conditions: for Diameter of clear zone inhibition: control 6 mm
Shigella flexneri = test: Agar disc diffusion, strain E; type: cell-based; parameters: Inhibition%: concentration or dose not given beside the values; conditions: for Diameter of clear zone inhibition: control 6 mm
Pseudomonas aeruginosa = test: Agar disc diffusion, strain D; type: cell-based; parameters: Inhibition%: concentration or dose not given beside the values; conditions: for Diameter of clear zone inhibition: control 6 mm
Bacillus cereu = test: Agar disc diffusion, strain G; type: cell-based; parameters: Inhibition%: concentration or dose not given beside the values; conditions: for Diameter of clear zone inhibition: control 6 mm
Escherichia coli = test: Agar disc diffusion, strain A; type: cell-based; parameters: Inhibition%: concentration or dose not given beside the values; conditions: for Diameter of clear zone inhibition: control (DMSO) 6 mm
[2] = system: Salmonella enterica serovar typhi; test: Agar disc diffusion, strain B; type: cell-based; conditions: for Diameter of clear zone inhibition: control 6 mm
Candida albicans = test: Agar disc diffusion, strain I; type: cell-based; parameters: Inhibition%: concentration or dose not given beside the values; conditions: for Diameter of clear zone inhibition: control 6 mm
Mucor indicus = test: Agar disc diffusion, strain J; type: cell-based; parameters: Inhibition%: concentration or dose not given beside the values; conditions: for Diameter of clear zone inhibition: control 6 mm
Aspergillus niger = test: Agar disc diffusion, strain H; type: cell-based; parameters: Inhibition%: concentration or dose not given beside the values; conditions: for Diameter of clear zone inhibition: control 6 mm
[3] = Nitric oxide scavenging assay; type: biochemical; conditions: 546 nm
[4] = Superoxide scavenging assay; conditions: 590 nm
[5] = Hydroxyl radical scavenging assay; type: biochemical; conditions: for % Inhibition, hydroxyl radical: 230 nm
[6] = DPPH radical scavenging assay; type: biochemical; conditions: for % Inhibition, DPPH: 517 nm
MCF-7 = test: MTT cell viability assay, MCF-7; type: cell-based, human; conditions: MCF-7, 72 h of exposure
NHDF = test: MTT cell viability assay, NHDF; type: cell-based, human; conditions: NHDF normal cells, 72 h of exposure
Method: Cellular viability or metabolic properties can be measured using the MTT assay, which is a powerful and consistent method for cytotoxic properties. […] As per the colorimetric approach, the IC50 values of all compounds were evaluated via the percentage of cell viability or inhibition of growth.[128] […] However, complexes (2) and (3) were exposed to similar cytotoxic potential as the others,[129] which induces apoptosis due to their ability to produce ROS more efficiently than the free ligand. […] The cytotoxic effectiveness is dependent upon the DNA binding modalities, the structure–activity relationship, the drug concentrations, and the incubation period exposure.[130] […] Coordination between the ligands and metal ions results in charge equilibration, which diminishes the polarity of the metal ions and also causes the ability of the test complexes to pass via the cell membrane lipid layer in accordance with Tweedy's chelation theory. Thus, it inhibits the synthesis of cell-wall/protein/nucleic acid. Additionally, the results of DNA binding tests using these complexes, including gel electrophoresis, UV-vis spectral titration, hydrodynamics, emission, and CV findings, were in good agreement with the findings of cytotoxicity.[131] Expressions eqn (44) and (45) were applied to measure the percentage of growth inhibition and cell viability (Table 10). In this case, complexes (2) and (3) have been proven to have greater biological efficiency than the others. Cytotoxicity depends on not only the hydrophilicity or lipophilicity and permeability, which only assist the crossing of the cell membrane but are not responsible for cell death, but also on several other factors, including the Lewis acid character, overall stability, solubility, conductivity, compatibility, length of the metal–ligand bond, overall charge, electron density, reduction potential, dipole moment, intermolecular hydrogen bonds, proton transfer equilibrium, and coordination environment. These significant elements might also contribute to the increased biological activity. Moreover, cobalt is also generally not considered to be a very toxic element, and its coordination complexes have fascinating redox and magnetic characteristics that fit them for a remarkable range of biological and medical uses. […] Moreover, it is possible to intelligently adjust these factors to successfully target a desired pathway or biomolecule. Designing such well-controlled and selective cobalt-based therapeutics may benefit from a mechanistic understanding of the varied bioactivities of cobalt complexes. Thus, knowing the mechanism of action can direct the advancement of prospective cobalt treatments to clinical trial.[133]
2.5. Assessment of in-vitro antimicrobial properties
bacteria and 7 days for fungal strains.

A549 = test: MTT cell viability assay, A549; type: cell-based, human; conditions: A549, 72 h of exposure
HepG2 = test: MTT cell viability assay, HepG2; type: cell-based, human; conditions: HepG2, 72 h of exposure
CT-DNA [7] = test: DNA binding by viscometric (hydrodynamic) technique
Method: The hydrodynamic properties were measured using an Ostwald viscometer with the help of a thermostat (25 ± 0.1 °C). The specific viscosity of DNA was also measured in the presence and absence of the test samples.[13,30]
Generally, when the major/minor groove binding, electrostatic, partial, and non-classical interaction modes are involved between chemical substances and DNA base pairs, the final DNA relative viscosity remains unchanged or undergoes a very negligible change due to reducing the contour length of DNA. When the intercalation binding modes are involved between a chemical substance and DNA base pairs via π–π stacking interactions and hydrophobic forces, an increase in relative viscosity is noted due to a rise in the contour length of DNA. Moreover, for the purpose of observing alterations in the CT-DNA helical structure, the viscosity findings for CT-DNA, various concentrations of chemical substances present, and EtBr were recorded. It was also noted that the absolute viscosity rose consistently along with the incremental concentration of each substance at the fixed DNA concentration. As a result of the strong binding mode of intercalation, the contour length of the double-helix DNA rises.[72] The obtained results are also compared with those of the classical intercalator (EB). The affinity interaction and their slope values were observed from the relative specific viscosity (η/η0)^1/3 plotted as a straight line contrasting [compound]/[DNA] and absolute specific viscosity of DNA in the presence or absence of chemical substances was evaluated using eqn (11) (Table 3). In the experiment, it was clearly noted that the slope values for all samples increased due to the rising binding affinity. The evaluated slopes were in the following sequence: (EB) 1.215 > (2) 0.860 > (3) 0.801 > (1) 0.662 > (HL) 0.490 (Fig. S21 ^† and Table 3). […] Due to the existence of 2,2′-bipyridine and the morpholine-fused aromatic planar systems, compounds can interact with DNA robustly via intercalation. The outcomes agreed with the observed outcomes of electronic absorption spectral characteristics.
11 [drawing 21] where η and η0 represent the specific viscosity of DNA in the presence of the complex and the specific viscosity of DNA alone, t0, tDNA and tcomplex represent the average flow time of the Tris–HCl buffer solution, the average flow time of the DNA alone solution, and the average flow time of DNA interacted with the samples, respectively. Error limit ± 2.5% (P < 0.025). […]
2.2.4. Assessment of DNA affinity by hydrodynamic technique
Hydrodynamic properties were performed using an Ostwald viscometer with the help of a thermostat (25 ± 0.1 °C). The experiment was performed of all samples, including ethidium bromide at various concentrations (20, 40, 60, 80, 100 µM) and each test compound was mixed with the deoxyribonucleic acid solution (100 µM) in the Ostwald viscometer. With a help of digital stopwatch, average flow time was gauged three times for each addition, and the specific viscosity of deoxyribonucleic acid was also measured in the presence and absence of test samples. […]
Also, the emission spectral titration for all compounds was also carried out at a fixed concentration (25 μM) of BSA with an incremental concentration of substances (0–25 µM)

CT-DNA [8] = test: DNA thermal denaturation / biothermodynamic properties; type: binding; conditions: adduct vs CT-DNA alone

NCC[C@H](O)C(=O)N[C@@H]1C[C@H](N)[C@@H](O[C@H]2O[C@H](CN)[C@@H](O)[C@H](O)[C@H]2O)[C@H](O)[C@H]1O[C@H]1O[C@H](CO)[C@@H](O)[C@H](N)[C@H]1O [Amikacin, amikacin, reference compound]
Inhibition% [1]: 75%
Diameter of clear zone inhibition [1]: 24 mm
Inhibition% (Staphylococcus Aureus): 70%
Diameter of clear zone inhibition (Staphylococcus Aureus): 20 mm
Inhibition% (Shigella flexneri): 70%
Diameter of clear zone inhibition (Shigella flexneri): 20 mm
Inhibition% (Pseudomonas aeruginosa): 70%
Diameter of clear zone inhibition (Pseudomonas aeruginosa): 20 mm
Inhibition% (Bacillus cereu): 70%
Diameter of clear zone inhibition (Bacillus cereu): 20 mm
Inhibition% (Escherichia coli): 73%
Diameter of clear zone inhibition (Escherichia coli): 22 mm
Inhibition% [2]: 73%
Diameter of clear zone inhibition [2]: 22 mm

C[C@@H]1[C@H](O)[C@@H](C)/C=C/C=C/C=C/C=C/C=C/C=C/C=C/[C@H](O[C@@H]2O[C@H](C)[C@@H](O)[C@H](N)[C@@H]2O)C[C@@H]2O[C@](O)(C[C@@H](O)C[C@@H](O)[C@H](O)CC[C@@H](O)C[C@@H](O)CC(=O)O[C@H]1C)C[C@H](O)[C@H]2C(=O)O [Amphotericin B, amphotericin B, reference compound]
Inhibition% (Candida albicans): 65%
Diameter of clear zone inhibition (Candida albicans): 17 mm
Inhibition% (Mucor indicus): 65%
Diameter of clear zone inhibition (Mucor indicus): 17 mm
Inhibition% (Aspergillus niger): 60%
Diameter of clear zone inhibition (Aspergillus niger): 15 mm

O=C1O[C@H]([C@@H](O)CO)C(O)=C1O [Ascorbic acid, ascorbic acid, reference compound]
% Inhibition, nitric oxide ([3]; 40 µM): 28.55%
% Inhibition, nitric oxide ([3]; 80 µM): 35.75%
% Inhibition, nitric oxide ([3]; 120 µM): 43.65%
% Inhibition, nitric oxide ([3]; 160 µM): 52.68%
% Inhibition, nitric oxide ([3]; 200 µM): 63.72%
% Inhibition, nitric oxide ([3]; 240 µM): 72.73%
% Inhibition, superoxide ([4]; 40 µM): 29.64%
% Inhibition, superoxide ([4]; 80 µM): 41.72%
% Inhibition, superoxide ([4]; 120 µM): 55.63%
% Inhibition, superoxide ([4]; 160 µM): 66.75%
% Inhibition, superoxide ([4]; 200 µM): 72.55%
% Inhibition, superoxide ([4]; 240 µM): 84.85%
IC50 [5]: 160 µM
% Inhibition, hydroxyl radical ([5]; 40 µM): 20.73%
% Inhibition, hydroxyl radical ([5]; 80 µM): 36.46%
% Inhibition, hydroxyl radical ([5]; 120 µM): 47.87%
% Inhibition, hydroxyl radical ([5]; 160 µM): 59.65%
% Inhibition, hydroxyl radical ([5]; 200 µM): 65.64%
% Inhibition, hydroxyl radical ([5]; 240 µM): 78.83%
IC50 [6]: 80 µM
% Inhibition, DPPH ([6]; 40 µM): 41.63%
% Inhibition, DPPH ([6]; 80 µM): 53.74%
% Inhibition, DPPH ([6]; 120 µM): 58.95%
% Inhibition, DPPH ([6]; 160 µM): 70.86%
% Inhibition, DPPH ([6]; 200 µM): 82.75%
% Inhibition, DPPH ([6]; 240 µM): 85.65%

N.N.[Cl][Pt][Cl] [Cisplatin, cisplatin, reference compound]
IC50 (MCF-7): 20.2 ± 1 µM
IC50 (NHDF): 26.9 ± 1.3 µM
IC50 (A549): 31.9 ± 1.6 µM
IC50 (HepG2): 22.9 ± 1.1 µM

CC[n+]1c(-c2ccccc2)c2cc(N)ccc2c2ccc(N)cc21 [EB, ethidium bromide, reference compound]
Slope of (η/η0)^1/3 vs [compound]/[DNA] (CT-DNA [7]): 1.215
Relative specific viscosity (η/η0)^1/3 (CT-DNA [7]; [complex]/[DNA] = 0.2): 1.01
Relative specific viscosity (η/η0)^1/3 (CT-DNA [7]; [complex]/[DNA] = 0.4): 1.35
Relative specific viscosity (η/η0)^1/3 (CT-DNA [7]; [complex]/[DNA] = 0.6): 1.63
Relative specific viscosity (η/η0)^1/3 (CT-DNA [7]; [complex]/[DNA] = 0.8): 1.82
Relative specific viscosity (η/η0)^1/3 (CT-DNA [7]; [complex]/[DNA] = 1.0): 1.99
ΔTm (CT-DNA [8]): 13 °C

CC(=O)N1CCN(c2ccc(OCC3COC(Cn4ccnc4)(c4ccc(Cl)cc4Cl)O3)cc2)CC1 (centres unmarked) [Ketoconazole, ketoconazole, reference compound]
Inhibition% (Candida albicans): 67%
Diameter of clear zone inhibition (Candida albicans): 18 mm
Inhibition% (Mucor indicus): 67%
Diameter of clear zone inhibition (Mucor indicus): 18 mm
Inhibition% (Aspergillus niger): 63%
Diameter of clear zone inhibition (Aspergillus niger): 16 mm

[H]/N=C(/N)N[C@H]1[C@H](O)[C@@H](O)[C@H](O[C@@H]2O[C@@H](C)[C@](O)(C=O)[C@H]2O[C@@H]2O[C@@H](CO)[C@H](O)[C@@H](O)[C@@H]2NC)[C@@H](N/C(N)=N\[H])[C@@H]1O [Streptomycin, streptomycin, reference compound]
Inhibition% [1]: 75%
Diameter of clear zone inhibition [1]: 24 mm
Inhibition% (Staphylococcus Aureus): 71%
Diameter of clear zone inhibition (Staphylococcus Aureus): 21 mm
Inhibition% (Shigella flexneri): 76%
Diameter of clear zone inhibition (Shigella flexneri): 25 mm
Inhibition% (Pseudomonas aeruginosa): 71%
Diameter of clear zone inhibition (Pseudomonas aeruginosa): 21 mm
Inhibition% (Bacillus cereu): 71%
Diameter of clear zone inhibition (Bacillus cereu): 21 mm
Inhibition% (Escherichia coli): 75%
Diameter of clear zone inhibition (Escherichia coli): 24 mm
Inhibition% [2]: 77%
Diameter of clear zone inhibition [2]: 26 mm
